Tests used:
[1] = biological target: T1, c-Met (baculovirus expressed human c-Met kinase domain P948-S1343) (Homo sapiens, UniProt P08581); assay: c-Met Luciferase-Coupled Chemiluminescent Kinase assay (LCCA); assay type: biochemical; conditions: Table 4, inhibition as IC50 class;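 also: kinase activity read as percent ATP left after reaction, by luciferase-luciferin chemiluminescence, with 1 µM ATP and 1 µM poly-EY substrate, 2 h at ambient temperature, 10-point dose-response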
T1 construct: human c-Met kinase domain P948-S1343; host or cells: baculovirus expression
T1 sequence (P08581 1011-1343 limits assumed): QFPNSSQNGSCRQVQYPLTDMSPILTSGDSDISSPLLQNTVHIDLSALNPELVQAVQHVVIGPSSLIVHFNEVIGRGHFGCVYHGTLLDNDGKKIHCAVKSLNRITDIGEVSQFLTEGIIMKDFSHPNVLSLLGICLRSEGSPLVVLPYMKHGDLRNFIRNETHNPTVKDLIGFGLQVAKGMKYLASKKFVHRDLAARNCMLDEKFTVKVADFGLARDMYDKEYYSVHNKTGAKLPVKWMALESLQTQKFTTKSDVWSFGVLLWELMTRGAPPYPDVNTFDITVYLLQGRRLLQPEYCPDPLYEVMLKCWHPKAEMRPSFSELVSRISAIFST

[2] = biological target: T2, KDR (baculovirus expressed human KDR kinase domain D807-V1356) (Homo sapiens, UniProt P35968); assay: biochemical; conditions: Table 4, inhibition as IC50 class;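 also: Luciferase-coupled chemiluminescent kinase assay, activity read as percent ATP left after 4 h reaction at ambient temperature, ATP near KM, 10-point dose-response in 384-well plates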
T2 construct: human KDR kinase domain D807-V1356; host or cells: baculovirus expression
T2 sequence (P35968 807-1356): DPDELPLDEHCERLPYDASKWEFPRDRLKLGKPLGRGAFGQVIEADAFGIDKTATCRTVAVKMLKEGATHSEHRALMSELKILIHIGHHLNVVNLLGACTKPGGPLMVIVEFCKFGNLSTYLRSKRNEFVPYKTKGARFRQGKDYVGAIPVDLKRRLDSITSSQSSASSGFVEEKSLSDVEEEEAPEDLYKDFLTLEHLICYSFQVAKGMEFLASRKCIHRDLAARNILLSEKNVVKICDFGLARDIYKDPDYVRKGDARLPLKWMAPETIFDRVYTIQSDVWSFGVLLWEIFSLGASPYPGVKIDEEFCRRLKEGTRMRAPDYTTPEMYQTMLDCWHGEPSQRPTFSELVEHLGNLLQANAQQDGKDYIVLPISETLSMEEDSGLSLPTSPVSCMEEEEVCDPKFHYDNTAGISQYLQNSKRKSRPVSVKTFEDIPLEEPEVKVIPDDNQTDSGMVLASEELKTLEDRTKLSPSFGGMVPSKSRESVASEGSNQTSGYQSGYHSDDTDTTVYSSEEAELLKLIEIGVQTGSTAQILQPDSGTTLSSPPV

[3] = biological target: T3, Flt-4 (baculovirus expressed human Flt-4 kinase domain D725-R1298) (Homo sapiens, UniProt P35916); assay: flt-4 Alphascreen Tyrosine Kinase assay; assay type: biochemical; conditions: Table 4, inhibition as IC50 class; read-out: flt4 IC50;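 also: AlphaScreen chemiluminescence read-out of biotinylated poly(Glu,Tyr) 4:1 phosphorylation via streptavidin donor and PY100 anti-phosphotyrosine acceptor beads, ATP near KM, 1 hr kinase reaction, 10-point dose-response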
T3 construct: human Flt-4 kinase domain D725-R1298; host or cells: baculovirus expression
T3 sequence (P35916 725-1298 isoform P35916-1): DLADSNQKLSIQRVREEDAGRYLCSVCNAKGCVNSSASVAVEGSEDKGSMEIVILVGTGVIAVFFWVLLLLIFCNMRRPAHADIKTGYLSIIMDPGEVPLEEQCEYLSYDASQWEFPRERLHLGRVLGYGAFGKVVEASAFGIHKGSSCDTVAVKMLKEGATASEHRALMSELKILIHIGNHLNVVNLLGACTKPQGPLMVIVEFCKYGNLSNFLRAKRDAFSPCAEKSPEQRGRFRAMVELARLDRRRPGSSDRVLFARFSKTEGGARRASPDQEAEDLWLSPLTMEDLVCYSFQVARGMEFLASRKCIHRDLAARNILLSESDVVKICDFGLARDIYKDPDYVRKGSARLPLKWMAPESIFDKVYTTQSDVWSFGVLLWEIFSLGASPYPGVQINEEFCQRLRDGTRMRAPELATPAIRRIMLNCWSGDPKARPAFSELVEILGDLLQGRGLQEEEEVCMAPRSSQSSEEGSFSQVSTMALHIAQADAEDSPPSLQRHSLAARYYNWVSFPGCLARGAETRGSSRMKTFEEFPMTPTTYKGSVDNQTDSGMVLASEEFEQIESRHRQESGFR

[4] = biological target: T4, Flt-3 (baculovirus expressed human Flt-3 kinase domain R571-S993) (Homo sapiens, UniProt P36888); assay: biochemical; conditions: Table 4, inhibition as IC50 class; read-out: flt3 IC50;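 also: Luciferase-coupled chemiluminescent kinase assay, activity read as percent ATP left after a 3 h reaction at room temperature, ATP near KM, 10-point dose-response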
T4 construct: human Flt-3 kinase domain R571-S993; host or cells: baculovirus expression
T4 sequence (P36888 571-993): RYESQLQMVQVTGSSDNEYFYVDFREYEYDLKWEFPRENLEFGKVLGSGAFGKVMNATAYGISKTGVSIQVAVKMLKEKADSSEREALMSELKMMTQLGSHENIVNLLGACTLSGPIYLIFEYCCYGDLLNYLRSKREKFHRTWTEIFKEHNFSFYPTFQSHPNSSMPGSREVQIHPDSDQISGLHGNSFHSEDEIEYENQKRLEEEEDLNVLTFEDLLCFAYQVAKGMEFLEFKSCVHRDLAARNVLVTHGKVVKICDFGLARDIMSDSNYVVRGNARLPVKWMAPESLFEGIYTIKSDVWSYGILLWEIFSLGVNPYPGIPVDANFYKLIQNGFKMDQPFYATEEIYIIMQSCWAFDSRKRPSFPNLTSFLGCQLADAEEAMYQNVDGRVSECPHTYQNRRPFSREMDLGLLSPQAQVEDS

c-Kit kinase = c-Kit kinase (Homo sapiens, UniProt P10721); assay: c-Kit AlphaScreen kinase assay; assay type: biochemical; conditions: Table 4, inhibition as IC50 class;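 also: c-Kit kinase phosphorylating biotinylated poly(Glu,Tyr), ATP near its KM, 1 h reaction at ambient temperature, AlphaScreen chemiluminescence with streptavidin donor and anti-phosphotyrosine acceptor beads, 10-point inhibitor titration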
c-Kit kinase, sequence (P10721 26-976): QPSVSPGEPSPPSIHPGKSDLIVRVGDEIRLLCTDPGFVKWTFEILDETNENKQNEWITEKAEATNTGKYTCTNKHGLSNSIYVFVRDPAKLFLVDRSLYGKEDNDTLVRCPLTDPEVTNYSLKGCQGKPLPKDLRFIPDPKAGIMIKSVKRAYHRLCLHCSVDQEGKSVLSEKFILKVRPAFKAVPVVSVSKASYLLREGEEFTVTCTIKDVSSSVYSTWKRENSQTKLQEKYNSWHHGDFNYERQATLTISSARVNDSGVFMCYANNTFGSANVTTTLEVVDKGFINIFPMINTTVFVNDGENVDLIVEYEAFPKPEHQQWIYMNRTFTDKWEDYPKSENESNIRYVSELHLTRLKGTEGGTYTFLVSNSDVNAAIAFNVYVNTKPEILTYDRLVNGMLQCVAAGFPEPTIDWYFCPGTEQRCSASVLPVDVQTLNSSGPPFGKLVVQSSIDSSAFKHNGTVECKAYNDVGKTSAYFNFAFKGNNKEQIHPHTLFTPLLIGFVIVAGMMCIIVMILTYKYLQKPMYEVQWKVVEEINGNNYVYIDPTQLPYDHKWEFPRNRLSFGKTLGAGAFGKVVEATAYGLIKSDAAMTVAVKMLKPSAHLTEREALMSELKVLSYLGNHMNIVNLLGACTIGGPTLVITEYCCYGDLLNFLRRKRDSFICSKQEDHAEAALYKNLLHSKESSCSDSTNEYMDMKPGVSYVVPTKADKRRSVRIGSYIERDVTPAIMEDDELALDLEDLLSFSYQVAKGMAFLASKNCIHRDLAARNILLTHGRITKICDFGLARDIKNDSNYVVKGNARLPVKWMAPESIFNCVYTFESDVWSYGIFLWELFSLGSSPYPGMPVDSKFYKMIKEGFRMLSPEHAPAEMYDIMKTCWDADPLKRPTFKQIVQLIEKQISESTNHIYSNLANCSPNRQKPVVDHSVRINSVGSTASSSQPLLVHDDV

Structure (SMILES)	IC50 [1]	IC50 [2]	IC50 [3]	IC50 [4]	IC50 (c-Kit kinase)
COc1cc2c(Oc3ccc(NC(=O)C(=O)NCCC(C)C)cc3F)ccnc2cc1OCC1CCNCC1 [Example 263, N-[3-fluoro-4-({6-(methyloxy)-7-[(piperidin-4-ylmethyl)oxy]quinolin-4-yl}oxy)phenyl]-N′-(3-methylbutyl)ethanediamide]	< 0.05 µM	0.05 to 0.5 µM	0.05 to 0.5 µM	0.05 to 0.5 µM	< 0.05 µM
COc1cc2c(Oc3ccc(NC(=O)C(=O)NCCC(C)(C)C)cc3F)ccnc2cc1OCC1CCNCC1 [Example 264, N-(3,3-dimethylbutyl)-N′-[3-fluoro-4-({6-(methyloxy)-7-[(piperidin-4-ylmethyl)oxy]quinolin-4-yl}oxy)phenyl]ethanediamide]	< 0.05 µM	< 0.05 µM	0.05 to 0.5 µM	< 0.05 µM	< 0.05 µM
COc1cc2c(Oc3ccc(NC(=O)C(=O)NCc4ccccn4)cc3F)ccnc2cc1OCC1CCNCC1 [Example 274, N-[3-fluoro-4-({6-(methyloxy)-7-[(piperidin-4-ylmethyl)oxy]quinolin-4-yl}oxy)phenyl]-N′-(pyridin-2-ylmethyl)ethanediamide]	< 0.05 µM	0.05 to 0.5 µM	0.05 to 0.5 µM	0.05 to 0.5 µM	0.05 to 0.5 µM
COc1cc2c(Oc3ccc(NC(=O)C(=O)NCCc4ccccc4)cc3F)ncnc2cc1OCC1CCNCC1 [Example 275, N-[3-fluoro-4-({6-(methyloxy)-7-[(piperidin-4-ylmethyl)oxy]quinazolin-4-yl}oxy)phenyl]-N′-(2-phenylethyl)ethanediamide]	< 0.05 µM	< 0.05 µM	< 0.05 µM	< 0.05 µM	< 0.05 µM
COc1cc2c(Oc3ccc(NC(=O)C(=O)NCCc4ccccc4)cc3F)ncnc2cc1OCC1CCN(C)CC1 [Example 276, N-{3-fluoro-4-[(6-(methyloxy)-7-{[(1-methylpiperidin-4-yl)methyl]oxy}quinazolin-4-yl)oxy]phenyl}-N′-(2-phenylethyl)ethanediamide]	< 0.05 µM	< 0.05 µM	< 0.05 µM	< 0.05 µM	< 0.05 µM
COc1cc2c(Oc3ccc(NC(=O)C(=O)NCc4cccc(C(F)(F)F)c4F)cc3F)ccnc2cc1OCC1CCNCC1 [Example 277, N-[3-fluoro-4-({6-(methyloxy)-7-[(piperidin-4-ylmethyl)oxy]quinolin-4-yl}oxy)phenyl]-N′-{[2-fluoro-3-(trifluoromethyl)phenyl]methyl}ethanediamide]	< 0.05 µM	< 0.05 µM	< 0.05 µM	< 0.05 µM	< 0.05 µM
COc1ccc(CCN(C)C(=O)C(=O)Nc2ccc(Oc3ccnc4cc(OCC5CCNCC5)c(OC)cc34)c(F)c2)cc1OC [Example 279, N-{2-[3,4-bis(methyloxy)phenyl]ethyl}-N′-[3-fluoro-4-({6-(methyloxy)-7-[(piperidin-4-ylmethyl)oxy]quinolin-4-yl}oxy)phenyl]-N-methylethanediamide]	0.05 to 0.5 µM	0.05 to 0.5 µM	0.05 to 0.5 µM	< 0.05 µM	0.05 to 0.5 µM
COc1ccc(Br)cc1CCNC(=O)C(=O)Nc1ccc(Oc2ccnc3cc(OCC4CCNCC4)c(OC)cc23)c(F)c1 [Example 280, N-{2-[5-bromo-2-(methyloxy)phenyl]ethyl}-N′-[3-fluoro-4-({6-(methyloxy)-7-[(piperidin-4-ylmethyl)oxy]quinolin-4-yl}oxy)phenyl]ethanediamide]	< 0.05 µM	< 0.05 µM	< 0.05 µM	< 0.05 µM	< 0.05 µM

Other lines, results leading:

IC50 [1]	IC50 [2]	IC50 [3]	IC50 [4]	IC50 (c-Kit kinase)	Structure (SMILES)
< 0.05 µM	0.05 to 0.5 µM	0.05 to 0.5 µM	0.5 to 5 µM	0.5 to 5 µM	COc1cc2c(Oc3ccc(NC(=O)C(=O)Nc4ccccc4)cc3F)ccnc2cc1OCC1CCN(C)CC1 [Example 259, N-{3-fluoro-4-[(6-(methyloxy)-7-{[(1-methylpiperidin-4-yl)methyl]oxy}quinolin-4-yl)oxy]phenyl}-N′-phenylethanediamide]
< 0.05 µM	0.5 to 5 µM	0.5 to 5 µM	0.5 to 5 µM	0.05 to 0.5 µM	COc1cc2c(Oc3ccc(NC(=O)C(=O)Nc4cccc(F)c4)cc3F)ccnc2cc1OCC1CCNCC1 [Example 260, N-[3-fluoro-4-({6-(methyloxy)-7-[(piperidin-4-ylmethyl)oxy]quinolin-4-yl}oxy)phenyl]-N′-(3-fluorophenyl)ethanediamide]
< 0.05 µM	0.5 to 5 µM	0.05 to 0.5 µM	0.05 to 0.5 µM	0.5 to 5 µM	COc1cc2c(Oc3ccc(NC(=O)C(=O)Nc4ccc(F)c(Cl)c4)cc3F)ccnc2cc1OCC1CCNCC1 [Example 261, N-(3-chloro-4-fluorophenyl)-N′-[3-fluoro-4-({6-(methyloxy)-7-[(piperidin-4-ylmethyl)oxy]quinolin-4-yl}oxy)phenyl]ethanediamide]
< 0.05 µM	0.5 to 5 µM	0.05 to 0.5 µM	0.05 to 0.5 µM	0.5 to 5 µM	COc1ccc(NC(=O)C(=O)Nc2ccc(Oc3ccnc4cc(OCC5CCNCC5)c(OC)cc34)c(F)c2)cc1OC [Example 262, N-[3,4-bis(methyloxy)phenyl]-N′-[3-fluoro-4-({6-(methyloxy)-7-[(piperidin-4-ylmethyl)oxy]quinolin-4-yl}oxy)phenyl]ethanediamide]
< 0.05 µM	0.05 to 0.5 µM	0.05 to 0.5 µM	< 0.05 µM	0.05 to 0.5 µM	COc1cc2c(Oc3ncc(NC(=O)CC(=O)Nc4ccc(F)cc4)cc3Cl)ccnc2cc1OCCCN1CCCCC1 [Example 265, N-[5-chloro-6-({6-(methyloxy)-7-[(3-piperidin-1-ylpropyl)oxy]quinolin-4-yl}oxy)pyridin-3-yl]-N′-(4-fluorophenyl)propanediamide]
< 0.05 µM	0.05 to 0.5 µM	0.05 to 0.5 µM	< 0.05 µM	0.05 to 0.5 µM	COc1cc2c(Oc3ncc(NC(=O)CC(=O)Nc4ccc(F)cc4)cc3Cl)ccnc2cc1OCCCN1CCOCC1 [Example 266, N-[5-chloro-6-({6-(methyloxy)-7-[(3-morpholin-4-ylpropyl)oxy]quinolin-4-yl}oxy)pyridin-3-yl]-N′-(4-fluorophenyl)propanediamide]
< 0.05 µM	0.05 to 0.5 µM	0.05 to 0.5 µM	< 0.05 µM	0.05 to 0.5 µM	CCN(CC)CCCOc1cc2nccc(Oc3ncc(NC(=O)CC(=O)Nc4ccc(F)cc4)cc3Cl)c2cc1OC [Example 267, N-(5-chloro-6-{[7-{[3-(diethylamino)propyl]oxy}-6-(methyloxy)quinolin-4-yl]oxy}pyridin-3-yl)-N′-(4-fluorophenyl)propanediamide]
< 0.05 µM	0.05 to 0.5 µM	0.05 to 0.5 µM	0.05 to 0.5 µM	0.05 to 0.5 µM	CCCCc1ccc(CNC(=O)C(=O)Nc2ccc(Oc3ccnc4cc(OCC5CCNCC5)c(OC)cc34)c(F)c2)cc1 [Example 270, N-[(4-butylphenyl)methyl]-N′-[3-fluoro-4-({6-(methyloxy)-7-[(piperidin-4-ylmethyl)oxy]quinolin-4-yl}oxy)phenyl]ethanediamide]
< 0.05 µM	0.05 to 0.5 µM	0.05 to 0.5 µM	< 0.05 µM	0.05 to 0.5 µM	COc1cc2c(Oc3ccc(NC(=O)C(=O)NCCc4ccc(C)cc4)cc3F)ccnc2cc1OCC1CCNCC1 [Example 271, N-[3-fluoro-4-({6-(methyloxy)-7-[(piperidin-4-ylmethyl)oxy]quinolin-4-yl}oxy)phenyl]-N′-[2-(4-methylphenyl)ethyl]ethanediamide]

— patent publication US8476298B2 (Exelixis, Inc., priority 2003, dated 2013)
